Drawing on PubChem BioAssay (NCI), this text covers GI50 and TGI for eight molecules.

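Compound exposure: 48 hours, 5 concentrations, 96-well plates. GI50 = concentration required for 50% inhibition of growth. TGI denotes the concentration required for complete inhibition of growth.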

Among the test systems are SF-295 CNS; MCF7 breast; HS 578T breast; SNB-75 CNS; KM12 colon; SW-620 colon; 786-0 renal; M14 melanoma; ACHN renal; IGROV1 ovarian.
What all share (test): NCI anticancer screen, dose series, 48 h

With `Fc1ccc(Nc2nc(Nc3ccc(-c4nc5ccccc5[nH]4)cc3)nc(N3CCCC3)n2)cc1`, the GI50 in the assay with SF-295 CNS was 1.97 µM; with MCF7 breast, 1.9 µM; in the assay on HS 578T breast, 2.16 µM; in the assay on SNB-75 CNS, 1.7 µM; with KM12 colon it was 2.98 µM; with SW-620 colon it was 1.87 µM. Moreover, the results for the GI50 in the assay on 786-0 renal, with M14 melanoma and with ACHN renal were 1.8 µM, 1.89 µM and 3.08 µM, respectively. The TGI in the assay on SF-295 CNS came out at 4.37 µM; with MCF7 breast, 5.22 µM; in the assay with HS 578T breast, 5.82 µM; in the assay on SNB-75 CNS, 3.89 µM; in the assay on KM12 colon it was 10 µM; in the assay on SW-620 colon it was 3.7 µM. Besides, the TGI with 786-0 renal was 3.35 µM; with M14 melanoma it was 3.95 µM; with ACHN renal, 10.4 µM.
As for `CC1SC(c2cccs2)N(NC(=O)C(O)c2ccccc2)C1=O` (stereo not drawn), the GI50 with SF-295 CNS, in the assay with MCF7 breast, in the assay on HS 578T breast, in the assay with SNB-75 CNS, with KM12 colon and with SW-620 colon was more than 100 µM in each case. In addition, the GI50 in the assay on 786-0 renal, with IGROV1 ovarian, with M14 melanoma and in the assay on ACHN renal was more than 100 µM throughout. For the same molecule, the TGI with SF-295 CNS, in the assay with MCF7 breast, in the assay with HS 578T breast, in the assay with SNB-75 CNS, with KM12 colon and in the assay on SW-620 colon was more than 100 µM in each case. Besides, the TGI with 786-0 renal, with IGROV1 ovarian, with M14 melanoma and in the assay on ACHN renal was more than 100 µM each time.
As for `O=C(NC(=S)NS(=O)(=O)c1ccc(N2N=C3c4ccccc4CC3C2c2cccs2)cc1)c1ccccc1` (stereo not drawn), the GI50 is 25.4 µM in the assay with SF-295 CNS; more than 100 µM in the assay on MCF7 breast; 16.1 µM in the assay on HS 578T breast; more than 100 µM with SNB-75 CNS; 28.2 µM in the assay with KM12 colon; 34.8 µM in the assay on SW-620 colon. The GI50 in the assay on 786-0 renal was 27.9 µM; in the assay with IGROV1 ovarian it was 3.14 µM; with M14 melanoma, 21.5 µM. Also, the TGI was 78.6 µM in the assay with SF-295 CNS; more than 100 µM with MCF7 breast; 68 µM in the assay on HS 578T breast; more than 100 µM in the assay with SNB-75 CNS; 91.8 µM with KM12 colon; more than 100 µM with SW-620 colon. In addition, the TGI was more than 100 µM with 786-0 renal, more than 100 µM in the assay on IGROV1 ovarian and 58.9 µM in the assay with M14 melanoma.
For `CN(C)CCn1cc(-c2ccc3c(Nc4ccc(CC(=O)Nc5cccc(F)c5)cc4)ncnc3c2)cn1`, the GI50 with SF-295 CNS was 2.95 µM; in the assay on MCF7 breast it was 1.21 µM; with HS 578T breast, 1.92 µM; in the assay with SNB-75 CNS, 0.0472 µM; in the assay on KM12 colon it was 0.393 µM; with SW-620 colon, 1.05 µM. Also, the GI50 was 1.42 µM in the assay on 786-0 renal, 2.01 µM in the assay with IGROV1 ovarian, 1.49 µM in the assay on M14 melanoma and 4.24 µM in the assay with ACHN renal. Further, the TGI in the assay on SF-295 CNS was more than 10 µM; in the assay on MCF7 breast, 3.55 µM; in the assay on HS 578T breast it was more than 10 µM; with SNB-75 CNS it was more than 10 µM; with KM12 colon it was 1.97 µM; in the assay with SW-620 colon it was 2.91 µM. In addition, the TGI in the assay on 786-0 renal was 2.87 µM; with IGROV1 ovarian, 6.41 µM; in the assay with M14 melanoma, 3.26 µM; in the assay on ACHN renal, more than 10 µM.
For `CCOc1ccc2c(c1)/C(=C\C=C\C1CC(C)C3CC(OCC)CCC3N1CC)CC(C)N2CC` (stereo not drawn), the GI50 was 0.418 µM with SF-295 CNS; 0.627 µM in the assay with MCF7 breast; 1.59 µM in the assay on HS 578T breast; 0.599 µM in the assay on SNB-75 CNS; 0.673 µM with KM12 colon; 0.73 µM in the assay with SW-620 colon. Also, the GI50 was 1.49 µM with 786-0 renal, 1.11 µM with IGROV1 ovarian, 1.43 µM with M14 melanoma and 1.43 µM in the assay on ACHN renal. For the same molecule, the TGI in the assay with SF-295 CNS is 1.68 µM; in the assay with MCF7 breast, 2.43 µM; in the assay with HS 578T breast it was 6.81 µM; with SNB-75 CNS, 1.92 µM; in the assay with KM12 colon it was 1.92 µM; in the assay with SW-620 colon, 2.59 µM. Also, the TGI with 786-0 renal stood at 2.98 µM; in the assay with IGROV1 ovarian it was 3.13 µM; in the assay with M14 melanoma it was 3 µM; in the assay with ACHN renal, 2.95 µM.
`CO/N=C1/c2cc(OC)ccc2-c2c(NOC)nc3ccccc3c21`: the GI50 is 32.8 µM in the assay on SF-295 CNS; 27.1 µM with MCF7 breast; 18 µM in the assay on HS 578T breast; 14.6 µM in the assay on SNB-75 CNS; 37.5 µM in the assay with KM12 colon; 60.1 µM in the assay with SW-620 colon. For the same molecule, the GI50 with 786-0 renal was 17.7 µM; with IGROV1 ovarian, 18 µM; in the assay with M14 melanoma, more than 100 µM; in the assay on ACHN renal, 14.3 µM. The TGI in the assay with SF-295 CNS is more than 100 µM; with MCF7 breast it was more than 100 µM; in the assay on HS 578T breast, 51 µM; with SNB-75 CNS, 40.2 µM; in the assay on KM12 colon it was more than 100 µM; with SW-620 colon, more than 100 µM. The TGI in the assay with 786-0 renal is 34.2 µM; in the assay with IGROV1 ovarian, 44.2 µM; with M14 melanoma it was more than 100 µM; with ACHN renal, 31.3 µM.
For `O=C1c2cc3c(cc2-c2c1c1ccc([N+](=O)[O-])cc1c(=O)n2CCCCl)OCO3`, the GI50 in the assay on SF-295 CNS was 0.066 µM; in the assay on MCF7 breast, 0.333 µM; in the assay with HS 578T breast, more than 100 µM; in the assay with SNB-75 CNS, 3.35 µM; in the assay on KM12 colon, 2.27 µM; in the assay on SW-620 colon, 0.263 µM. The figures for the GI50 with 786-0 renal, in the assay on M14 melanoma and in the assay with ACHN renal were 0.198 µM, 1.52 µM and 0.0707 µM, respectively. The TGI in the assay with SF-295 CNS, in the assay on HS 578T breast, with SNB-75 CNS, in the assay with KM12 colon, in the assay on SW-620 colon and with 786-0 renal was more than 100 µM in each case. The TGI in the assay with M14 melanoma is more than 100 µM; in the assay with ACHN renal it was 0.234 µM.
On to `CC(C)(C)c1ccc(-c2nnc(SCc3ccc(Cl)cc3)n2-c2cccc(C(F)(F)F)c2)cc1`, for which the TGI was more than 100 µM with SF-295 CNS; more than 100 µM in the assay with MCF7 breast; more than 100 µM in the assay with HS 578T breast; more than 94.1 µM in the assay with SNB-75 CNS; more than 100 µM in the assay on KM12 colon; more than 100 µM with SW-620 colon. For the same molecule, the TGI with 786-0 renal, in the assay on IGROV1 ovarian, with M14 melanoma and in the assay on ACHN renal was more than 100 µM in each case.
